Values of other authors as cited in patent publication US20170135989A1, “ALLISARTAN ISOPROXIL SOLID DISPERSION AND PHARMACEUTICAL COMPOSITION” (SHENZHEN SALUBRIS PHARMACEUTICALS CO., LTD, priority 2014, published 2017).

Legend:
[1] = from CN200680000397.8
angiotensin II receptor = target: T1, angiotensin II receptor (Homo sapiens, UniProt P30556); conditions: from CN200680000397.8; compared with products of the same type (such as losartan)
T1 sequence (P30556 1-359): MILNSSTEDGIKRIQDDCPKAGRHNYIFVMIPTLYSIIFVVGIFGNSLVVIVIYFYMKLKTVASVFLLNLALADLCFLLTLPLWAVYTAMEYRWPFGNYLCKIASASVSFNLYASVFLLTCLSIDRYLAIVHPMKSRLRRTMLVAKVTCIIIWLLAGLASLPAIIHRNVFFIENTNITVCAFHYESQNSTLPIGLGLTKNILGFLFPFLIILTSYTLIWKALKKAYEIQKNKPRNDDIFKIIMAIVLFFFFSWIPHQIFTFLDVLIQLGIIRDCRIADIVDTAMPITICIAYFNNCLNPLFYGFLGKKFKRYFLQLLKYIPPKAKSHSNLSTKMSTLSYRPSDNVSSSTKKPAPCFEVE

Solubility in water: low
Structure (SMILES): CCCCc1nc(Cl)c(C(=O)OCOC(=O)OC(C)C)n1Cc1ccc(-c2ccccc2-c2nnn[nH]2)cc1 [Allisartan isoproxil, 2-butyl-4-chloro-1-[2′-(1H-tetrazol-5-yl)-1,1′-biphenyl-methyl]-imidazole-5-carboxylic acid, 1-[(isopropoxy)-carbonyloxy]-, methyl ester]
Toxicity [1]: low toxicity
Antihypertensive effect (angiotensin II receptor): better antihypertensive effect than products of the same type
